Earlier results on one molecule are cited in patent US20240065969A1, “OPHTHALMIC TOPICAL CREAM FORMULATIONS AND USES THEREOF” (Glaukos Corporation, priority 2022, published 2024).

In the case of `CC[C@@H]1C(=O)OC[C@@H]1Cc1cncn1C` [pilocarpine], the pKa (usually the negative logarithm of the acid dissociation constant) is listed as around 6.5.
